Publication PMC5538589, “Discovery of Novel Allopurinol Derivatives with Anticancer Activity and Attenuated Xanthine Oxidase Inhibition” (Molecules, 2016)
Where two headings read alike, the source gives them in different places.

How the values were obtained:
MDA-MB-231 cells = test: Cell survival/growth assay (Coulter cell count), MDA-MB-231 cells; assay type: cell-based; conditions: 5 days, treated/vehicle cell number ratio; for viability at 1 µM / viability at 10 µM: Homo sapiens, 120 h; for viability at 1 µM: read-out: Survival Rate (%) 1 μM; for viability at 10 µM: read-out: Survival Rate (%) 10 μM;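 on all read-outs here: cells grown in DMEM with 5% FBS, vehicle control was an equal volume of DMSO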
BEL-7402 [1] = system: BEL-7402; parameters: method as in PMID 23851116; conditions: value from earlier study; cited from earlier work
SMMC-7221 [2] = system: SMMC-7221; parameters: method as in PMID 23851116; conditions: value from earlier study; cited from earlier work
MCF-10A cells [3] = test: Cytotoxicity towards normal MCF-10A mammary epithelial cells (Cell Titer-Glo); conditions: human, MCF-10A normal mammary epithelial cells
BEL-7402 [4] = test: MTT cell viability assay, human hepatoma carcinoma BEL-7402 cells; assay type: cell-based; conditions: 24 h treatment, concentration inhibiting cancer cell replication by 50%, tested up to 100 μM
SMMC-7221 [5] = test: MTT cell viability assay, human hepatoma carcinoma SMMC-7221 cells; assay type: cell-based; conditions: read-out: IC50 SMMC-7221
MCF-10A cells [6] = test: in vitro; conditions: human
[7] = system: normal cells versus tumor types; parameters: method as in PMID 12213470, PMID 15217612; conditions: normal cells more resistant to anti-cancer effects; cited from earlier work
xanthine oxidase (XOD) = xanthine oxidase (XOD) (Bos taurus, UniProt P80457); conditions: test concentrations 5, 10, 15, 25 μM; allopurinol positive control
xanthine oxidase (XOD), sequence (P80457 2-1332 limits assumed): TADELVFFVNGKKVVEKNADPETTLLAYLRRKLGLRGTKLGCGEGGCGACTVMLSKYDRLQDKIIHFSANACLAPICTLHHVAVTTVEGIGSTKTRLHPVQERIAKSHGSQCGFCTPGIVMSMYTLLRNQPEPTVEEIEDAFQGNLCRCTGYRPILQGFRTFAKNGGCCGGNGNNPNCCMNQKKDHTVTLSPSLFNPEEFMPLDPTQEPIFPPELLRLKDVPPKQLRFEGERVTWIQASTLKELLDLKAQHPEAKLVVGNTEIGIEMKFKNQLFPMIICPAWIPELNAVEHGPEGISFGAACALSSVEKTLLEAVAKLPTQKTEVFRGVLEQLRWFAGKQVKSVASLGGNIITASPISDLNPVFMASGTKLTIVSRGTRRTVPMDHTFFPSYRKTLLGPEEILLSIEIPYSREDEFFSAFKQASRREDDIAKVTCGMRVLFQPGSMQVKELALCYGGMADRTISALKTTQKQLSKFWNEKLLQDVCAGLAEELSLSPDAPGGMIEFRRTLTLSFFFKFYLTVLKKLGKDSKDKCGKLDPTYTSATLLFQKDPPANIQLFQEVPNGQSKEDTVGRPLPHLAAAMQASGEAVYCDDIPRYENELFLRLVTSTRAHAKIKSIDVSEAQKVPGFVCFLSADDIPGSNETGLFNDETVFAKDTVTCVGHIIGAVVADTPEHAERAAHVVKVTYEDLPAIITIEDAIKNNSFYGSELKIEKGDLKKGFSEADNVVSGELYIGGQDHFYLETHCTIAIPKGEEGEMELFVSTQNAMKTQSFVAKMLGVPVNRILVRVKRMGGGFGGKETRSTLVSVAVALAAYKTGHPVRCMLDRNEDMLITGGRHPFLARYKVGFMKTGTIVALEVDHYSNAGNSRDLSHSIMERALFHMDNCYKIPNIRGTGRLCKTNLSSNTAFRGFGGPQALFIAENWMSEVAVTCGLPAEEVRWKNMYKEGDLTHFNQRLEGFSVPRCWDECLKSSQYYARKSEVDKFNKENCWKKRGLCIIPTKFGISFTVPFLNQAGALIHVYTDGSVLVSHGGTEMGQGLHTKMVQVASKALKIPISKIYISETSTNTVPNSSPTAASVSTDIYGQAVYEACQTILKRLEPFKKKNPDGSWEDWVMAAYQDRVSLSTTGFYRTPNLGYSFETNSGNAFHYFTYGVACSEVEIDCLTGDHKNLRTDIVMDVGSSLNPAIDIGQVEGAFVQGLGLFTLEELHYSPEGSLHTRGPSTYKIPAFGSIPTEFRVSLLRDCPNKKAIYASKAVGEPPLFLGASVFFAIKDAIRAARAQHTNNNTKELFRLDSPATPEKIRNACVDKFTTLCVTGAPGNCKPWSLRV

[8] = SMMC-7221, MTT, 24 h treatment, concentration inhibiting cancer cell replication by 50%, tested up to 100 μM

SMILES	viability at 1 µM (MDA-MB-231 cells; MDA-MB-231, 1 μM) [%]	viability at 10 µM (MDA-MB-231 cells; MDA-MB-231, 10 μM) [%]	IC50 (BEL-7402 [4]) [µM]	IC50 (SMMC-7221 [5]; [8]) [µM]	melting point [°C]	also measured
CCOC(=O)Cn1ncc2c(Nc3ccc(NC(=O)CCl)cc3)ncnc21 [Compound 1]	40.2 ± 3.9	1 ± 0.6	–	–	–	IC50 (BEL-7402 [1]): 18.7 µM; IC50 (SMMC-7221 [2]): 9.03 µM; IC50 at 72 h (MCF-10A cells [3]): 5.59 ± 0.27 µM
CCn1ncc2c(Cl)ncnc21 [Compound 3, 4-Chloro-1-ethyl-1H-pyrazolo[3,4-d]pyrimidine]	86.2 ± 8.6	67 ± 4.8	> 100	> 100	76 to 77	–
CCn1ncc2c(NN)ncnc21 [Compound 4, 1-Ethyl-4-hydrazinyl-1H-pyrazolo[3,4-d]pyrimidine]	66.1	27.8	25.5 ± 0.4	–	–	IC50 (SMMC-7221 [5]; SMMC-7221, 24 h): 35.2 ± 0.4 µM; Survival Rate (%) 1 μM (MDA-MB-231 cells; MDA-MB-231, 1 μM): 66.1 ± 0.5%; Survival Rate (%) 10 μM (MDA-MB-231 cells; MDA-MB-231, 10 μM): 27.8 ± 2.4%; IC50 at 72 h (MCF-10A cells [3]): 17.4 ± 0.69 µM
CCn1ncc2c(NNS(=O)(=O)c3ccc(C)cc3)ncnc21 [Compound 5a, N′-(1-Ethyl-1H-pyrazolo[3,4-d]pyrimidin-4-yl)-4-methylbenzenesulfonohydrazide]	89.1 ± 1.5	72.8 ± 3.9	> 100	> 100	186 to 187	–
CCn1ncc2c(NNS(=O)(=O)c3ccc([N+](=O)[O-])cc3)ncnc21 [Compound 5b, N′-(1-Ethyl-1H-pyrazolo[3,4-d]pyrimidin-4-yl)-4-nitrobenzenesulfonohydrazide]	92.9 ± 1.5	68 ± 2.4	> 100	> 100	194 to 195	–
CCn1ncc2c(NNS(=O)(=O)c3ccccc3)ncnc21 [Compound 5c, N′-(1-Ethyl-1H-pyrazolo[3,4-d]pyrimidin-4-yl)benzenesulfonohydrazide]	75.7 ± 11	74.7 ± 0.1	> 100	> 100	194 to 195	–
CCn1ncc2c(NNS(=O)(=O)c3ccc(Br)cc3)ncnc21 [Compound 5d, 4-Bromo-N′-(1-ethyl-1H-pyrazolo[3,4-d]pyrimidin-4-yl)benzenesulfonohydrazide]	80.5 ± 2	70.9 ± 1	> 100	> 100	194 to 195	–
CCn1ncc2c(NNC(C)=O)ncnc21 [Compound 5e, N′-(1-Ethyl-1H-pyrazolo[3,4-d]pyrimidin-4-yl)acetohydrazide]	94.8 ± 0.5	61.3 ± 1	> 100	> 100	–	IC50 at 72 h (MCF-10A cells [3]): 20.2 ± 0.81 µM
CCn1ncc2c(N(NC(=O)c3ccccc3)C(=O)c3ccccc3)ncnc21 [Compound 5f, N′-Benzoyl-N′-(1-ethyl-1H-pyrazolo[3,4-d]pyrimidin-4-yl)benzohydrazide]	102 ± 11	88.1 ± 1	> 100	> 100	144 to 146	–
CCn1ncc2c(NNC(=O)CCl)ncnc21 [Compound 5g, 2-Chloro-N′-(1-ethyl-1H-pyrazolo[3,4-d]pyrimidin-4-yl)acetohydrazide]	105 ± 4.8	105 ± 2.9	> 100	> 100	202 to 204	IC50 at 72 h (MCF-10A cells [3]): 23.3 ± 0.71 µM
Clc1ncnc2c1cnn2Cc1ccccc1 [Compound 6, 1-Benzyl-4-chloro-1H-pyrazolo[3,4-d]pyrimidine]	77.6 ± 9.1	75.7 ± 1.5	> 100	> 100	62 to 63	–
NCCNc1ncnc2c1cnn2Cc1ccccc1 [Compound 7, N1-(1-Benzyl-1H/-pyrazolo[3,4-d]pyrimidin-4-yl)ethane-1,2-diamine]	81.4 ± 7.2	57.5 ± 1	> 100	> 100	–	–
O=S(=O)(NCCNc1ncnc2c1cnn2Cc1ccccc1)c1ccccc1 [Compound 8a, N-(2-((1-Benzyl-1H-pyrazolo[3,4-d]pyrimidin-4-yl)amino)ethyl)benzenesulfonamide]	–	58.4 ± 2.4	66.61 ± 0.62	> 100	–	–
O=[N+]([O-])c1ccc(S(=O)(=O)NCCNc2ncnc3c2cnn3Cc2ccccc2)cc1 [Compound 8b, N-(2-((1-Benzyl-1H-pyrazolo[3,4-d]pyrimidin-4-yl)amino)ethyl)-4-nitrobenzenesulfonamide]	75.7 ± 2.4	71.8 ± 8.5	> 100	81.46 ± 0.78	–	–
O=S(=O)(NCCNc1ncnc2c1cnn2Cc1ccccc1)c1ccc(Br)cc1 [Compound 8c, N-(2-((1-benzyl-1H-pyrazolo[3,4-d]pyrimidin-4-yl)amino)ethyl)-4-bromobenzenesulfonamide]	105 ± 8.6	78.5 ± 3.9	> 100	> 100	–	–
C=CCNC1=C2C[C@@H](C)C[C@H](OC)[C@H](O)[C@@H](C)/C=C(\C)[C@H](OC(N)=O)[C@@H](OC)/C=C\C=C(/C)C(=O)NC(=CC1=O)C2=O [Compound 17-AAG, 17-N-allylamino-17-demethoxy geldanamycin, reference compound]	6.7 ± 0.5	4.8 ± 0.5	12.4 ± 0.1	9.85 ± 0.08	–	IC50 at 72 h (MCF-10A cells [6]): 0.09 ± 0.01 µM
C#CCCCn1c(Cc2cc(OC)c(OC)c(OC)c2Cl)nc2c(N)nc(F)nc21 [PU24FCl]	–	–	–	–	–	Resistance of normal cells relative to tumor cells [7]: 10- to 50 fold
Oc1ncnc2[nH]ncc12 [allopurinol, 4-hydroxyl-1H-pyrazolo[3,4-d]pyrimidine]	84.3 ± 7.7	51.7 ± 6.7	–	–	–	XOD inhibitory activity (in words) (xanthine oxidase (XOD)): strong inhibitor of XOD
